# Results reported in patent US9938516B2, “Non-natural amino acid tRNA synthetases for para-methylazido-L-phenylalanine” (SUTRO BIOPHARMA, INC., priority 2013, dated 2018).
# Assay: copper-free click conjugation kinetics with DBCO-PEG
# Type: physicochemical
# Settings: 10-fold molar excess DBCO-PEG; 25° C., ionic strength 0.5 M (KCl), 0.005% Tween-20, phosphate buffer
# Experimental: The small molecule conjugation kinetics of pAzF and pAMF were compared. In particular, pAzF and pAMF were reacted at increasing concentrations with a 10-fold molar excess of dibenzocyclooctyl-polyethylene glycol (DBCO-PEG) compound (FIG. 2A and FIG. 2C) in a copper-free click reaction. First-order kinetics at 25° C., ionic strength 0.5 M (KCl), and 0.005% Tween-20 in phosphate buffer were determined under pseudo-first-order conditions in triplicate, using a SpectraMax M5 plate reader with 96-well polystyrene plates (Molecular Devices, Sunnyvale, Calif.). The formation of conjugated product was measured by the decrease in absorbance of the strained cyclooctoalkyne DBCO at 306 nm in the presence of increasing concentrations of pAzF or pAMF. The second-order rate constants were calculated according to kcat (M−1 sec-1)=kobs/[Azido].
compound,measurement,value
"[N-]=[N+]=NCc1ccc(C[C@H](N)C(=O)O)cc1 [pAMF, para-azidomethyl-L-phenylalanine]",reaction rate relative to pAzF,seven-fold higher
